Active and inactive are the calls of the source. How the calls were made is not given here.
Test system: CCRIS mutagenicity, Ames/micronucleus/aberration tests
Assay: CCRIS mutagenicity studies
[1] = Test System: AMES SALMONELLA TYPHIMURIUM, Strain/Indicator: TA98, Metabolic Activation: NONE
[2] = Test System: AMES SALMONELLA TYPHIMURIUM, Strain/Indicator: TA98, Metabolic Activation: RAT, LIVER, S-9, AROCLOR 1254
[3] = Test System: AMES SALMONELLA TYPHIMURIUM, Strain/Indicator: TA100, Metabolic Activation: NONE
[4] = Test System: AMES SALMONELLA TYPHIMURIUM, Strain/Indicator: TA100, Metabolic Activation: RAT, LIVER, S-9, AROCLOR 1254
[5] = Test System: AMES SALMONELLA TYPHIMURIUM, Strain/Indicator: TA98, Metabolic Activation: NONE, Method: STANDARD PLATE
[6] = Test System: AMES SALMONELLA TYPHIMURIUM, Strain/Indicator: TA100, Metabolic Activation: NONE, Method: STANDARD PLATE
[7] = Test System: AMES SALMONELLA TYPHIMURIUM, Strain/Indicator: TA1535, Metabolic Activation: NONE, Method: STANDARD PLATE
[8] = Test System: AMES SALMONELLA TYPHIMURIUM, Strain/Indicator: TA98, Metabolic Activation: RAT, LIVER, S-9, AROCLOR 1254, Method: STANDARD PLATE

Measured: mutagenic call

C[As+](C)(C)CC(=O)[O-]
inactive: Test System: AMES SALMONELLA TYPHIMURIUM, Strain/Indicator: TA97, Metabolic Activation: NONE inactive; negative | Test System: AMES SALMONELLA TYPHIMURIUM, Strain/Indicator: TA97, Metabolic Activation: RAT, GUT-FLORA EXTRACT inactive; negative | Test System: AMES SALMONELLA TYPHIMURIUM, Strain/Indicator: TA97, Metabolic Activation: RAT, LIVER, S-9, AROCLOR 1254 inactive; negative | [1] inactive; negative | Test System: AMES SALMONELLA TYPHIMURIUM, Strain/Indicator: TA98, Metabolic Activation: RAT, GUT-FLORA EXTRACT inactive; negative | [2] inactive; negative | [3] inactive; negative | Test System: AMES SALMONELLA TYPHIMURIUM, Strain/Indicator: TA100, Metabolic Activation: RAT, GUT-FLORA EXTRACT inactive; negative | [4] inactive; negative | Test System: CHINESE HAMSTER V-79, Strain/Indicator: V-79/6-THIOGUANINE (HGPRT), Metabolic Activation: NONE, Method: SUSPENSION/PLATE inactive; negative | Test System: CHINESE HAMSTER V-79, Strain/Indicator: V-79/6-THIOGUANINE (HGPRT), Metabolic Activation: RAT, LIVER, S-9, AROCLOR 1254, Method: SUSPENSION/PLATE inactive; negative | Test System: Mouse lymphoma, Strain/Indicator: L5178Y (TK+/TK-), Metabolic Activation: None, Method: Microwell inactive; negative

CCCCOC(=O)/C=C\C(=O)OCCCC
inactive: Test System: AMES SALMONELLA TYPHIMURIUM, Strain/Indicator: TA97A, Metabolic Activation: NONE inactive; negative | Test System: AMES SALMONELLA TYPHIMURIUM, Strain/Indicator: TA97A, Metabolic Activation: RAT, LIVER, S-9, AROCLOR 1254 inactive; negative | [1] inactive; negative | [2] inactive; negative | [3] inactive; negative | [4] inactive; negative | Test System: AMES SALMONELLA TYPHIMURIUM, Strain/Indicator: TA102, Metabolic Activation: NONE inactive; negative | Test System: AMES SALMONELLA TYPHIMURIUM, Strain/Indicator: TA102, Metabolic Activation: RAT, LIVER, S-9, AROCLOR 1254 inactive; negative

C=CCN1CCC=C2c3nc(NC(C)=O)sc3CCC21 (stereo not drawn)
inactive: Test System: AMES SALMONELLA TYPHIMURIUM, Strain/Indicator: TA1538, Metabolic Activation: RAT, LIVER, S-9, AROCLOR 1254, Method: STANDARD PLATE inactive; negative

CCOC(=O)C1=C(C)NC(C)=C(C(=O)OCC2COC3(CCCC3)O2)C1c1cccc(Cl)c1 (stereo not drawn)
inactive: Test System: AMES SALMONELLA TYPHIMURIUM, Strain/Indicator: TA97, Metabolic Activation: NONE, Method: STANDARD PLATE inactive; negative | Test System: AMES SALMONELLA TYPHIMURIUM, Strain/Indicator: TA97, Metabolic Activation: RAT, LIVER, S-9, Method: STANDARD PLATE inactive; negative | [5] inactive; negative | Test System: AMES SALMONELLA TYPHIMURIUM, Strain/Indicator: TA98, Metabolic Activation: RAT, LIVER, S-9, Method: STANDARD PLATE inactive; negative | [6] inactive; negative | Test System: AMES SALMONELLA TYPHIMURIUM, Strain/Indicator: TA100, Metabolic Activation: RAT, LIVER, S-9, Method: STANDARD PLATE inactive; negative | Test System: AMES SALMONELLA TYPHIMURIUM, Strain/Indicator: TA102, Metabolic Activation: NONE, Method: STANDARD PLATE inactive; negative | Test System: AMES SALMONELLA TYPHIMURIUM, Strain/Indicator: TA102, Metabolic Activation: RAT, LIVER, S-9, Method: STANDARD PLATE inactive; negative | Test System: CHINESE HAMSTER V-79, Strain/Indicator: V-79 (HPRT)/6-THIOGUANINE, Metabolic Activation: NONE inactive; negative

CC(C)(Cl)[N+](=O)[O-]
inactive: Test System: AMES SALMONELLA TYPHIMURIUM, Strain/Indicator: TA98, Metabolic Activation: HAMSTER, LIVER, S-9, AROCLOR 1254 (30%), Method: PREINCUBATION inactive; negative | Test System: AMES SALMONELLA TYPHIMURIUM, Strain/Indicator: TA98, Metabolic Activation: NONE, Method: PREINCUBATION inactive; negative | Test System: AMES SALMONELLA TYPHIMURIUM, Strain/Indicator: TA98, Metabolic Activation: RAT, LIVER, S-9, AROCLOR 1254 (30%), Method: PREINCUBATION inactive; negative | Test System: AMES SALMONELLA TYPHIMURIUM, Strain/Indicator: TA100, Metabolic Activation: HAMSTER, LIVER, S-9, AROCLOR 1254 (30%), Method: PREINCUBATION inactive; negative | Test System: AMES SALMONELLA TYPHIMURIUM, Strain/Indicator: TA100, Metabolic Activation: RAT, LIVER, S-9, AROCLOR 1254 (30%), Method: PREINCUBATION inactive; negative | Test System: AMES SALMONELLA TYPHIMURIUM, Strain/Indicator: TA1535, Metabolic Activation: HAMSTER, LIVER, S-9, AROCLOR 1254 (30%), Method: PREINCUBATION inactive; negative | Test System: AMES SALMONELLA TYPHIMURIUM, Strain/Indicator: TA1535, Metabolic Activation: NONE, Method: PREINCUBATION inactive; negative | Test System: AMES SALMONELLA TYPHIMURIUM, Strain/Indicator: TA1535, Metabolic Activation: RAT, LIVER, S-9, AROCLOR 1254 (30%), Method: PREINCUBATION inactive; negative | Test System: AMES SALMONELLA TYPHIMURIUM, Strain/Indicator: TA1538, Metabolic Activation: HAMSTER, LIVER, S-9, AROCLOR 1254 (30%), Method: PREINCUBATION inactive; negative | Test System: AMES SALMONELLA TYPHIMURIUM, Strain/Indicator: TA1538, Metabolic Activation: NONE, Method: PREINCUBATION inactive; negative | Test System: AMES SALMONELLA TYPHIMURIUM, Strain/Indicator: TA1538, Metabolic Activation: RAT, LIVER, S-9, AROCLOR 1254 (30%), Method: PREINCUBATION inactive; negative
active: Test System: AMES SALMONELLA TYPHIMURIUM, Strain/Indicator: TA100, Metabolic Activation: NONE, Method: PREINCUBATION active; positive

COc1ccc(CN(C)N=O)cc1
inactive: Test System: AMES SALMONELLA TYPHIMURIUM, Strain/Indicator: TA1535, Metabolic Activation: HAMSTER, LIVER, S-9, AROCLOR 1254, Method: STANDARD PLATE inactive; negative | [7] inactive; negative

Nc1ccc(Sc2ccccc2)cc1
inactive: [5] inactive; negative
active: [8] active; positive

Nc1ccc2ccc3c4ccccc4cc4ccc1c2c43
active: [1] active; positive | [2] active; positive

NC1c2ccccc2-c2ccccc21
inactive: Test System: AMES SALMONELLA TYPHIMURIUM, Strain/Indicator: TA98, Metabolic Activation: RAT, LIVER, S-9, AROCLOR 1254 (2 OR 4%), Method: STANDARD PLATE inactive; negative | Test System: AMES SALMONELLA TYPHIMURIUM, Strain/Indicator: TA100, Metabolic Activation: RAT, LIVER, S-9, AROCLOR 1254 (2%), Method: STANDARD PLATE inactive; negative | Test System: AMES SALMONELLA TYPHIMURIUM, Strain/Indicator: TA1535, Metabolic Activation: RAT, LIVER, S-9, AROCLOR 1254 (2%), Method: STANDARD PLATE inactive; negative | Test System: AMES SALMONELLA TYPHIMURIUM, Strain/Indicator: TA1537, Metabolic Activation: RAT, LIVER, S-9, AROCLOR 1254 (2%), Method: STANDARD PLATE inactive; negative

c1cnc2ccc3c(c2c1)CC[C@@H]1O[C@H]31
inactive: [6] inactive; negative

CC(C)(Cl)Cl
inactive: Test System: AMES SALMONELLA TYPHIMURIUM, Strain/Indicator: GSTT1, Metabolic Activation: RAT, LIVER, S-9, AROCLOR 1254, Method: STANDARD PLATE inactive; negative | Test System: AMES SALMONELLA TYPHIMURIUM, Strain/Indicator: RSJ100, Metabolic Activation: NONE, Method: STANDARD PLATE inactive; negative | [5] inactive; negative | [8] inactive; negative | [6] inactive; negative | Test System: AMES SALMONELLA TYPHIMURIUM, Strain/Indicator: TA100, Metabolic Activation: RAT, LIVER, S-9, AROCLOR 1254, Method: STANDARD PLATE inactive; negative | Test System: AMES SALMONELLA TYPHIMURIUM, Strain/Indicator: TA104, Metabolic Activation: NONE, Method: STANDARD PLATE inactive; negative | Test System: AMES SALMONELLA TYPHIMURIUM, Strain/Indicator: TA104, Metabolic Activation: RAT, LIVER, S-9, AROCLOR 1254, Method: STANDARD PLATE inactive; negative | [7] inactive; negative | Test System: AMES SALMONELLA TYPHIMURIUM, Strain/Indicator: TA1535, Metabolic Activation: RAT, LIVER, S-9, AROCLOR 1254, Method: STANDARD PLATE inactive; negative

Reference: PubChem BioAssay AID1259407 (Chemical Carcinogenesis Research Information System (CCRIS), 2018)
